Assay results reported in article PMC3502552, “A dimerized urea-based inhibitor of the prostate-specific membrane antigen for ^68Ga-PET imaging of prostate cancer” (EJNMMI Research, 2012).

Assays:
[1] = test system: LNCaP cells; assay: Cell surface retention (efflux); assay type: cell-based, human; details: 2-PMPA added to avoid rebinding, compared to monomer
Method: The determination of cell surface retention was performed in accordance to a previously described experiment. Briefly, 5 × 10^6 LNCaP cells in a 320-μL RPMI 1640 medium were incubated with ^68Ga]6 or ^68Ga]7 (25 nM final concentration), respectively, for 45 min at 37°C. Cells were washed three times and resuspended in the RPMI 1640 medium (320 μL); samples were taken as a control for total cell-associated activity (cell surface bound and internalized). Subsequently, 0.5 μL of a 2-PMPA solution (100 mmol/L in DMSO) was added to avoid rebinding and to enhance the competitive pressure on releasing the radioactivity from the cell surface. At indicated time points, 10-μL samples were taken and transferred on top of a 400-μL microcentrifuge tube containing 350 μL of a 75:25 mixture of silicon oil (density 1.05; Aldrich), and mineral oil (density 0.872; Acros, Thermo Fisher Scientific). Subsequently, the tubes were centrifuged at 12,000 rpm for 2 min to separate cellular radioactivity and radioactivity solved in the medium. After freezing in liquid nitrogen, the bottom tips containing the cell pellet were cut off. The cell pellets and the medium were measured in a gamma counter to determine cellular uptake
(1) %uptake=100×cpminpellet/cpminpellet+cpminsupernatant

[2] = test system: PSMA+ LNCaP cells; assay: Cell binding and internalization in LNCaP cells; assay type: cell-based, human
Method: (§1) Internalization experiments were performed as previously described. Briefly, 10^5 LNCaP or PC-3 cells were seeded in poly-L-lysine-coated 24-well cell culture plates 24 h before incubation. After washing with PBS, the cells were incubated with the radiolabeled compounds ^68Ga]6 or ^68Ga]7 (25 nM final concentration) for 45 min at 37°C and at 4°C, respectively. To determine specific cellular uptake, cells were blocked with 2-(phosphonomethyl)-pentanedioic acid (PMPA, Axxora, Loerrach, Germany) to a final concentration of 100 μM. Cellular uptake was terminated by washing four times with 1 mL of ice-cold PBS. To remove surface-bound radioactivity, cells were incubated twice with 0.5 mL glycine-HCl in PBS (50 mM, pH = 2.8) for 5 min. The cells were washed with 1 mL of ice-cold PBS and lysed using 0.3 N NaOH (0.5 mL). The surface-bound and the internalized fractions were measured in a gamma counter.

[3] = test system: PSMA− PC-3 tumor; assay: Biodistribution in PC-3 tumor-bearing mice; assay type: in vivo, BALB/c nu/nu mice; details: 1 h post-injection; PSMA− PC-3 tumor-bearing mice
Method: Male BALB/c nu/nu mice of 7 to 8 weeks old (Charles River Laboratories, Wilmington, MA, USA) were subcutaneously inoculated into the right trunk with 5 × 10^6 cells of either LNCaP or PC-3 (both in 50% Matrigel; Becton Dickinson, Heidelberg, Germany). The tumors were allowed to grow for 3 to 4 weeks until approximately 1 cm^3 in size. The ^68Ga-radiolabeled compounds were injected into a tail vein (1 to 2 MBq/mouse; 0.1 to 0.2 nmol). […] Organs of interest were dissected, blotted dry, and weighed. The radioactivity was measured using a gamma counter and calculated as percentage injected dose per gram (% ID/g).

[4] = test system: LNCaP tumor xenograft; assay: Dynamic microPET in mice bearing LNCaP tumor xenografts; assay type: in vivo; details: L-isomer versus D-isomer
Method: For the microPET studies, 10 to 25 MBq of either [^68Ga]6 or [^68Ga]7 in a volume of 0.15 mL (approximately 0.5 nmol) was injected via a lateral tail vein into mice bearing LNCaP tumor xenografts. The anesthetized animals (2% sevoflurane, Abbott, Wiesbaden, Germany) were placed in prone position into an Inveon small animal PET scanner (Siemens, Knoxville, TN, USA) to perform a 50-min dynamic microPET scan starting at 1 min post-injection followed by a 20-min static scan. All animal experiments complied with the current laws of the Federal Republic of Germany.

[5] = test system: LNCaP tumor xenografts; assay: Biodistribution in mice bearing LNCaP tumor xenografts; assay type: in vivo, BALB/c nu/nu mice; details: 1 h post-injection
Method: Male BALB/c nu/nu mice of 7 to 8 weeks old (Charles River Laboratories, Wilmington, MA, USA) were subcutaneously inoculated into the right trunk with 5 × 10^6 cells of either LNCaP or PC-3 (both in 50% Matrigel; Becton Dickinson, Heidelberg, Germany). The tumors were allowed to grow for 3 to 4 weeks until approximately 1 cm^3 in size. The ^68Ga-radiolabeled compounds were injected into a tail vein (1 to 2 MBq/mouse; 0.1 to 0.2 nmol). At 1 h after injection, the animals were sacrificed. Organs of interest were dissected, blotted dry, and weighed. The radioactivity was measured using a gamma counter and calculated as percentage injected dose per gram (% ID/g).

[6] = Radiochemical stability in human serum and PBS; assay type: in vitro ADME; details: 2 h incubation at 37°C
Method: (§2) The radiochemical stability was analyzed in both phosphate-buffered saline (PBS) and human serum. After 2 h of incubation at 37°C, an equal volume of CH3CN was added to the samples to precipitate serum proteins. Subsequently, the samples were centrifuged for 5 min at 13,000 rpm. Aliquots of the supernatant and the PBS sample were analyzed via RP-HPLC. In addition, serum samples were run on a Superdex 75 GL 5/150 gel filtration column (GE Healthcare, Munich, Germany) to analyze potential protein binding (PBS pH 7 as eluent).

[7] = target: apo-transferrin (Homo sapiens, UniProt P02787); assay: Complex stability against human transferrin / protein binding (size exclusion chromatography); assay type: in vitro ADME; details: after incubation in human serum or in the presence of apo-transferrin; 2 h, 37°C
Method: as §2, with “eluent). To analyze the complex stability against human transferrin, a 400-μL aliquot was added to 250 μg of apo-transferrin in PBS at pH 7 and incubated at 37°C (water bath) for 2 h. The complex stability was determined using a Superdex 75 GL 5/150 short column with PBS pH 7 as eluent.” for “eluent).”

[8] = test system: PSMA− PC-3 cells; assay: Cell binding and internalization in PC-3 cells; assay type: cell-based, human; details: 25 nM, 45 min
Method: as §1

[9] = i.v. tail vein, 0.1 to 0.2 nmol

Chain of apo-transferrin (P02787 20-698): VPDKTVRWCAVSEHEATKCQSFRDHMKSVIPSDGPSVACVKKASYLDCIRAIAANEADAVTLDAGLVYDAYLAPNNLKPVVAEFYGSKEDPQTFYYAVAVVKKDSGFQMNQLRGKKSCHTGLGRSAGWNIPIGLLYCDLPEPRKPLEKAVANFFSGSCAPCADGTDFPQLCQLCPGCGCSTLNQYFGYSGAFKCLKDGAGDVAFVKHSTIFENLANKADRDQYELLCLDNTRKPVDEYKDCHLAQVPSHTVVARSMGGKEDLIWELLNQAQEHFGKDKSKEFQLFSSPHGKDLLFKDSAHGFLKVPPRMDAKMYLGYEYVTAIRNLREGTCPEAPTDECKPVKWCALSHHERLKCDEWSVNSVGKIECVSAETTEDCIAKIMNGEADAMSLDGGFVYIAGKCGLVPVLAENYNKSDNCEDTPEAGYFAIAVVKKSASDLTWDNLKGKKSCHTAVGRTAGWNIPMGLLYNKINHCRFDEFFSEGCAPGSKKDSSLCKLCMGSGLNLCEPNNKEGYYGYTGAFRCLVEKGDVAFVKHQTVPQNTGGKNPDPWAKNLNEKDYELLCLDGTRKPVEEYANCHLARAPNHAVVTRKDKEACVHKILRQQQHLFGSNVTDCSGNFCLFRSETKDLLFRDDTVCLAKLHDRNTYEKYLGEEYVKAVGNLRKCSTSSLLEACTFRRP

O=C(O)CC[C@H](NC(=O)N[C@@H](CCCCNC(=O)CCCCCNC(=O)CCc1ccc(O)c(CN(CCN(CC(=O)O)Cc2cc(CCC(=O)NCCCCCC(=O)NCCCC[C@H](NC(=O)N[C@@H](CCC(=O)O)C(=O)O)C(=O)O)ccc2O)CC(=O)O)c1)C(=O)O)C(=O)O [[^68Ga]7, metal not drawn]
Cell surface retention (efflux experiment) [1]: prolonged cell surface retention | Internalized fraction ([2]; 25 nM, 45 min): approximately 25% | Cellular uptake ([2]; 25 nM, 45 min, percentage of applied radioactivity bound to 10^6 cells): 40.04 ± 6.09% | Uptake in the presence of 2-PMPA ([2]; 100 μM 2-PMPA): blocked | Organ distribution, PC-3 tumor [3]: 0.93 ± 0.53 % ID/g | Tumor time-activity behaviour in dynamic PET [4]: accumulation in the tumor | Enhanced tumor uptake of dimer versus monomer (factor) ([5]; LNCaP tumor): approximately 1.7 | Tumor-to-blood ratio (T/B) ([5]; LNCaP tumor): 26.5 | Kidney uptake after co-injection of PMPA ([5]; blocked with 2 mg/kg 2-PMPA): 8.29 ± 0.83 % ID/g | Spleen uptake after blocking ([5]; blocked with 2 mg/kg 2-PMPA): 0.67 ± 0.11 % ID/g | Organ distribution, Blood [5, 9]: 0.31 ± 0.03 % ID/g | Organ distribution, Brain [5, 9]: 0.17 ± 0.01 % ID/g | Organ distribution, Heart [5, 9]: 0.90 ± 0.12 % ID/g | Organ distribution, Intestine [5, 9]: 0.57 ± 0.14 % ID/g | Organ distribution, Kidney [5, 9]: 133.43 ± 18.88 % ID/g | Organ distribution, Liver [5, 9]: 1.29 ± 0.11 % ID/g | Organ distribution, Lung [5, 9]: 2.25 ± 0.24 % ID/g | Organ distribution, Muscle [5, 9]: 0.90 ± 0.01 % ID/g | Organ distribution, Spleen [5, 9]: 17.88 ± 4.53 % ID/g | Organ distribution, LNCaP tumor ([5]; n = 5): 8.22 ± 1.78 % ID/g | Intact compound by HPLC analysis [6]: 99% | Changes in size exclusion chromatography [7]: no changes in size exclusion chromatography were detected | Binding to PSMA− PC-3 cells [8]: no binding
